Source: PMC12457114, “Comparison of the pharmacokinetic profiles of three triterpenoids after oral administration of a cucurbitacin tablet and nanosuspension by UHPLC-MS/MS” (Frontiers in Pharmacology, 2025)

What was measured:
[1] = Stability of the analytes in rat plasma under different storage conditions; format: in vitro ADME; conditions: for Stability (RE%) Post-preparative / Stability (RE%) Short-term / Stability (RE%) Long-term / Stability (RE%) Freeze-thaw: rat plasma, n = 6; for Stability (RE%) Post-preparative / Stability in rat plasma (in words): 12 h at 4 °C post-sample preparation; for Stability (RE%) Short-term: ambient temperature (25 °C) for 4 h; for Stability (RE%) Long-term / Stability in rat plasma (in words): storage at −20 °C; for Stability (RE%) Freeze-thaw: three freeze-thaw cycles (−20 °C/room temperature); for Stability in rat plasma (in words): 25 °C for 4 h, three freeze-thaw cycles
Source text: Table 5 outlines the stability of LQC, MQC, and HQC in the rat plasma under different storage conditions.

[2] = Pharmacokinetic study in rats after oral administration of CUT and MP-NPs, plasma by UHPLC-MS/MS; conditions: male, Sprague Dawley, in vivo, n = 6, mean ± SD
Description: An Agilent 6430 triple quadrupole mass spectrometer with an ESI source interface (Agilent Technologies, Santa Clara, CA, United States) was used in conjunction with an Agilent 1290 UHPLC system (Agilent Technologies). A Waters ACQUITY HSS T3 Column (1.8 μm, 2.1 × 100 mm) (Waters, Manchester, UK) was also used for the separations. Gradient elution was performed using water (A) and methanol (B) as mobile phases. The gradient elution procedure was used for 0.0–1.0 min, 80%–80% B; 1.0–1.5 min, 80%–90% B; 1.5–3.0 min, 90%–90% B; 3.0–3.2 min, 90%–80% B; and 3.2–4 min, 80%–80% B. The analytical temperature was 35 °C, and the flow rate was 0.3 mL/min. An injection of 5 μL volume was administered, after which the needle was washed. Positive ion-mode analysis was performed for the samples. The capillary voltage was set to 4500 V, source temperature to 100 °C, and the desolvation temperature to 350 °C ([Wang et al., 2014]). High-purity nitrogen was used as the nebulizing gas, and nitrogen was used as the drying gas at a flow rate of 11 L/min. The Agilent Mass Hunter workstation was used to gather the experimental data ([Wang Z et al., 2023]).
A total of 12 male Sprague Dawley (SD) rats (weight: 220 ± 20 g) were provided by the Animal Experiment Center of Heilongjiang University of Traditional Chinese Medicine (Production license number: SYXK (Hei) 2021-010). The Laboratory Animal Ethics Committee of Heilongjiang University of Traditional Chinese Medicine approved the study (Approval No.: 2024053114).
Animals were randomly assigned to the following two experimental groups (n = 6 per group): CUT and MP-NPs. Treatments were administered once daily for seven consecutive days, with the plasma sampling performed at predetermined time points after administration. Dosage was calculated based on human-equivalent doses converted to rat pharmacokinetic parameters using interspecies scaling factors. The human-rat dose conversion procedure was used to determine the dose of CUT per rat to be 0.03 g. The recommended daily dosage for humans is 6 tablets. The dose of MP-NPs per rat was determined to be 0.06 g per rat using the human-rat dose conversion formula, whereas the dose of P. Melo for human usage was 3 g, with reference to the Pharmacopoeia of the People’s Republic of China 2025.
At 0.083, 0.25, 0.50, 1, 1.5, 2, 2.5, 3, 4, 6, 8, 12, and 24 h following oral administration of CUT and MP-NPs, 0.25 mL of plasma samples were sampled by rapidly collecting and centrifuging at 4 °C, followed by freezing at −20 °C for further analysis ([Yu et al., 2023]).
Blank plasma sample (100 μL) was vortexed for 60 s after adding 100 μL of IS. To guarantee complete extraction, 3 mL of dichloromethane was then added to each sample, followed by vortexing for 120 s. Subsequently, the samples were centrifuged for 10 min at 4 °C and 3,500 rpm. At 40 °C, the […] organic phase was carefully moved into a sterile tube, dried off with a mild stream of nitrogen gas, and then reconstituted in 100 μL of the original mobile phase. Following a 120 s vortex, the extracts were filtered through a 0.22 μm Millipore filter before subjecting them to quantitative analyses by injecting 5 μL of them into the UHPLC-MS/MS apparatus.
The established UHPLC-MS/MS method was applied to simultaneously measure the plasma concentrations of the three analytes in rats following dose administration. Pharmacokinetic parameters have attracted attention in exploring drug absorption and distribution. These parameters include T 1/2, C max, T max, and AUC (Table 6). The pharmacokinetics of SD rats following oral administration of CUT and MP-NPs were investigated through UHPLC-MS/MS. The plasma concentrations of the three analytes were calculated. […] The MP-NPs group reached C max more rapidly than the CUT group.

[3] = HQC (spiked 300.2 CuB, 600.2 CuD, 300.8 CuE ng/mL)
[4] = LQC (spiked 5.272 CuB, 25.30 CuD, 5.257 CuE ng/mL)
[5] = MQC (spiked 150.1 CuB, 300.1 CuD, 150.4 CuE ng/mL)
[6] = CUT group, oral cucurbitacin tablet 0.03 g per rat
[7] = MP-NPs group, oral MP-NPs(PVP-K30) 0.06 g per rat

SMILES | Stability (RE%) Post-preparative [1, 3] | Stability (RE%) Short-term [1, 3] | Stability (RE%) Long-term [1, 3] | Stability (RE%) Freeze-thaw [1, 3] | Stability (RE%) Post-preparative [1, 4] | Stability (RE%) Short-term [1, 4] | Stability (RE%) Long-term [1, 4] | Stability (RE%) Freeze-thaw [1, 4] | Stability (RE%) Post-preparative [1, 5] | Stability (RE%) Short-term [1, 5] | Stability (RE%) Long-term [1, 5] | Stability (RE%) Freeze-thaw [1, 5] | Stability in rat plasma (in words) [1] | AUC(0-inf) [2, 6] | AUC(0-t) [2, 6] | Cmax [2, 6] | Tmax [2, 6] | half-life [2, 6] | AUC(0-inf) [2, 7] | AUC(0-t) [2, 7] | also measured
CC(C)(O)/C=C/C(=O)[C@](C)(O)[C@H]1[C@H](O)C[C@@]2(C)[C@@H]3CC=C4[C@@H](C[C@H](O)C(=O)C4(C)C)[C@]3(C)C(=O)C[C@]12C [CuD, cucurbitacin D] | 7.032% | −5.861% | −2.272% | −7.765% | −3.854% | 4.262% | 5.336% | −3.242% | −8.805% | −4.154% | −5.533% | −8.420% | remained stable | 1160 ng·h/mL | 1030 ng·h/mL | 339 ± 24.4 ng/mL | 1.83 ± 0.683 h | 5.33 ± 0.991 h | 1480 ng·h/mL | 1260 ng·h/mL | Cmax [2, 7]: 365 ± 69.9 ng/mL; Tmax [2, 7]: 1.75 ± 0.61 h; half-life [2, 7]: 6.97 ± 2.92 h
CC(=O)OC(C)(C)/C=C/C(=O)[C@](C)(O)[C@H]1[C@H](O)C[C@@]2(C)[C@@H]3CC=C4[C@@H](C=C(O)C(=O)C4(C)C)[C@]3(C)C(=O)C[C@]12C [CuE, cucurbitacin E] | −8.572% | −3.143% | −3.035% | −1.361% | 6.711% | 6.050% | 8.213% | 7.947% | −2.053% | −4.192% | 5.814% | 1.424% | remained stable | 682 ± 126 ng·h/mL | 603 ± 125 ng·h/mL | 166 ± 13.8 ng/mL | 2.25 ± 0.521 h | 5.99 ± 1.23 h | 973 ± 269 ng·h/mL | 752 ± 150 ng·h/mL | Cmax [2, 7]: 236 ± 31.9 ng/mL; Tmax [2, 7]: 1.67 ± 0.612 h; half-life [2, 7]: 7.05 ± 2.7 h
